# From US9708286B2, “Ingenol-3-acylates III and ingenol-3-carbamates” (LEO Laboratories Limited, priority 2010, dated 2017)
# Key:
# [1] = test system: PMN's (polymorphonuclear leukocytes); assay: Neutrophil oxidative burst; type: cell-based; details: Leukocyte, 40 min, read-out: Neutrophil oxidative burst Rel EC50 range, PMN from buffy coats, 40 min at RT, hydroethidine fluorescence; normalized to 5×10^−7 M PEP0005
# Procedure: PMN's (polymorphonuclear leukocytes) were isolated and purified from fresh buffy coats by sequential sedimentation, density centrifugation and lysis of contaminating erythrocytes. Buffy coats were incubated with 2% methocel for 30-45 min to differentially sediment red blood cells. The leukocyte-rich supernatant was transferred to lymphoprep tubes to remove mononuclear cells by density centrifugation (400×g, 30 min). The pellet was resuspended and any remaining erythrocytes lysed using 0.2% NaCl for 30 sec before restoring isotonicity by the addition of 1.2% NaCl. This step was repeated until the cell pellet appears relatively free of red blood cells. Cells were resuspended in DPBS (Dulbecco's Phosphate Buffered Saline) (w.o. Ca^2+, Mg^2+) and the concentration adjusted to 1.4×10^6 cells/ml in HBSS (Hanks Balanced Salt solution) (w Ca^2+, Mg^2±) containing 0.1% BSA (Bovine Serum Albumin) and 5 mM glucose just prior to assay initiation. Titrated reference and test compounds were pre-mixed with HE (Hydroethidine) (10 μM final assay concentration) before addition to 96-well plates containing 2.5×10^5 cells. Following 40 min incubation at RT, changes in the respiratory burst was estimated by measuring fluorescence at 579 nm (excitation: 485 nm) using an Envision plate reader.
# Test compound titration curves were fitted to a four-parameter sigmoidal curve after normalizing the effect of the test compound to the effect of the positive control (5×10^−7 M PEP0005). Rel EC50 denotes the concentration of test compound producing an effect that is midway between the fitted top and bottom. Abs EC50 is the concentration of test compound that provokes a response corresponding to 50% of the maximal effect associated with the positive control (5×10^−7 M PEP0005).
# HeLa cells = assay: Necrosis assay; type: cell-based; details: Homo sapiens, HeLa, 0.5 h, read-out: HeLa necrosis EC50 range
# Procedure: HeLa cells (ATCC CCL-002) were grown in minimal essential medium (Invitrogen catalog no. 42360) containing 10% fetal bovine serum, 100 IU/ml penicillin and 100 μg/ml streptomycin. 4,000-6,000 cells were seeded into 96-well black ViewPlates-plates, clear bottom, (Perkin Elmer) in 100 μl medium and incubated overnight. Compounds were dissolved and pre-diluted in DMSO in 96-well polypropylene plates (Greiner) in a concentration range of 15 μM to 600 μM. At the time of the experiment cell plates were placed on heating blocks at 37° C., medium was removed and 40 μl fresh, pre-warmed medium was added per well. Cells were incubated for 15 min before addition of compounds. In parallel, 3 μl of compounds were diluted with 197 μl growth medium on a Tecan freedom-EVO pipetting station using 250 μl/s pipetting speed, in order to ensure effective mixing of the highly concentrated compound solutions with the aqueous phase. These pre-dilution plates were then equilibrated on heating blocks at 37° C. for 10 min. 80 μl pre-diluted compound were transferred manually to the corresponding wells containing HeLa cells yielding compound concentrations of 10 μM to 400 μM. Control conditions were 1% DMSO in growth medium (100% viability) and 400 μM ingenol mebutate in growth medium (0% viability). Plates were incubated on the heating blocks at 37° C. for 30 min. At the end of the incubation 10 μl PrestoBlue reagent (Invitrogen) were added to each well, plates were sealed with black seal, followed by incubation at 37° C. for 10 min with gentle shaking (150 rpm). Subsequently, plates were placed at room temperature for 20-30 min. Plates were read immediately after on an Envision Fluorescence reader (Perkin Elmer) with excitation at 535 nm and emission at 630 nm. Test compound titration curves were fitted to a four-parameter sigmoidal curve after normalizing the effect of the test compound to the effect of the positive control (4 10^−4 M PEP0005/ingenol mebutate). AbsEC50 denotes the concentration of test compound producing 50% effect.
SMILES,EC50 [1] [nM],EC50 (HeLa cells) [nM]
"CC1=C[C@]23C(=O)[C@@H](C=C(CO)[C@@H](O)[C@]2(O)[C@H]1OC(=O)C12CCC(C)(C(=O)O1)C2(C)C)[C@H]1[C@@H](C[C@H]3C)C1(C)C [Compound 503, Ingenol 3-(1S-camphanate)]",20 to 100,–
"CC1=C[C@]23C(=O)[C@@H](C=C(CO)[C@@H](O)[C@]2(O)[C@H]1OC(=O)c1cc(-c2ccccc2)on1)[C@H]1[C@@H](C[C@H]3C)C1(C)C [Compound 511, Ingenol 3-(5-phenylisoxazole-3-carboxylate)]",20 to 100,< 150000
"CC1=C[C@]23C(=O)[C@@H](C=C(CO)[C@@H](O)[C@]2(O)[C@H]1OC(=O)c1nccc2ccccc12)[C@H]1[C@@H](C[C@H]3C)C1(C)C [Compound 512, Ingenol 3-(isoquinoline-1-carboxylate)]",20 to 100,< 150000
"CC1=C[C@]23C(=O)[C@@H](C=C(CO)[C@@H](O)[C@]2(O)[C@H]1OC(=O)c1ccnc2ccccc12)[C@H]1[C@@H](C[C@H]3C)C1(C)C [Compound 513, Ingenol 3-(quinoline-4-carboxylate)]",< 20,< 150000
"CC1=C[C@]23C(=O)[C@@H](C=C(CO)[C@@H](O)[C@]2(O)[C@H]1OC(=O)c1cncn1-c1ccccc1)[C@H]1[C@@H](C[C@H]3C)C1(C)C [Compound 515, Ingenol 3-(3-phenylimidazole-4-carboxylate)]",< 20,< 150000
"CC1=C[C@]23C(=O)[C@@H](C=C(CO)[C@@H](O)[C@]2(O)[C@H]1OC(=O)c1ncccc1Br)[C@H]1[C@@H](C[C@H]3C)C1(C)C [Compound 524, Ingenol 3-(3-bromopyridine-2-carboxylate)]",20 to 100,150000 to 350000
"CC1=C[C@]23C(=O)[C@@H](C=C(CO)[C@@H](O)[C@]2(O)[C@H]1OC(=O)c1c(C)nc2ccccn12)[C@H]1[C@@H](C[C@H]3C)C1(C)C [Compound 535, Ingenol 3-(2-methylimidazo[1,2-a]pyridine-3-carboxylate)]",< 20,150000 to 350000
"CCn1c(C)cc(C)c1C(=O)O[C@H]1C(C)=C[C@]23C(=O)[C@@H](C=C(CO)[C@@H](O)[C@]12O)[C@H]1[C@@H](C[C@H]3C)C1(C)C [Compound 543, Ingenol 3-(1-ethyl-3,5-dimethylpyrrole-2-carboxylate)]",< 20,< 150000
"CC1=C[C@]23C(=O)[C@@H](C=C(CO)[C@@H](O)[C@]2(O)[C@H]1OC(=O)[C@@H]1CCCN1c1ccccc1)[C@H]1[C@@H](C[C@H]3C)C1(C)C [Compound 545, Ingenol 3-((2S)-1-phenylpyrrolidine-2-carboxylate)]",20 to 100,150000 to 350000
"CC1=C[C@]23C(=O)[C@@H](C=C(CO)[C@@H](O)[C@]2(O)[C@H]1OC(=O)c1c(C)nn(CC2CCOCC2)c1C)[C@H]1[C@@H](C[C@H]3C)C1(C)C [Compound 561, Ingenol 3-(3,5-dimethyl-1-(tetrahydropyran-4-ylmethyl)pyrazole-4-carboxylate)]",20 to 100,150000 to 350000
"CC1=C[C@]23C(=O)[C@@H](C=C(CO)[C@@H](O)[C@]2(O)[C@H]1OC(=O)c1sc(=O)[nH]c1C)[C@H]1[C@@H](C[C@H]3C)C1(C)C [Compound 562, Ingenol 3-(4-methyl-2-oxo-3H-thiazole-5-carboxylate)]",20 to 100,> 350000
"CC1=C[C@]23C(=O)[C@@H](C=C(CO)[C@@H](O)[C@]2(O)[C@H]1OC(=O)c1noc(C)c1C)[C@H]1[C@@H](C[C@H]3C)C1(C)C [Compound 569, Ingenol 3-(4,5-dimethylisoxazole-3-carboxylate)]",20 to 100,150000 to 350000
"CCNC(=O)O[C@H]1C(C)=C[C@]23C(=O)[C@@H](C=C(CO)[C@@H](O)[C@]12O)[C@H]1[C@@H](C[C@H]3C)C1(C)C [Compound 701, Ingenol 3-(N-ethyl-carbamate)]",20 to 100,–
"CC1=C[C@]23C(=O)[C@@H](C=C(CO)[C@@H](O)[C@]2(O)[C@H]1OC(=O)N(C)C(C)CC#N)[C@H]1[C@@H](C[C@H]3C)C1(C)C (stereo partly drawn) [Compound 715, Ingenol 3-(N-(2-cyano-1-methyl-ethyl)-N-methyl-carbamate)]",> 100,> 350000
"CC1=C[C@]23C(=O)[C@@H](C=C(CO)[C@@H](O)[C@]2(O)[C@H]1OC(=O)N(C)c1cc(C)nn1C)[C@H]1[C@@H](C[C@H]3C)C1(C)C [Compound 719, Ingenol 3-(N-(2,5-dimethylpyrazol-3-yl)-N-methyl-carbamate)]",> 100,> 350000
"CC1=C[C@]23C(=O)[C@@H](C=C(CO)[C@@H](O)[C@]2(O)[C@H]1OC(=O)N1CCC(=O)c2ccccc21)[C@H]1[C@@H](C[C@H]3C)C1(C)C [Compound 725, Ingenol 3-(4-oxo-2,3-dihydroquinoline-1-carboxylate)]",< 20,150000 to 350000
"CC1=C[C@]23C(=O)[C@@H](C=C(CO)[C@@H](O)[C@]2(O)[C@H]1OC(=O)N(C)c1ccc(F)cc1)[C@H]1[C@@H](C[C@H]3C)C1(C)C [Compound 730, Ingenol 3-(N-(4-fluoro-phenyl)-N-methyl-carbamate)]",–,150000 to 350000
"COc1ccccc1N(C)C(=O)O[C@H]1C(C)=C[C@]23C(=O)[C@@H](C=C(CO)[C@@H](O)[C@]12O)[C@H]1[C@@H](C[C@H]3C)C1(C)C [Compound 731, Ingenol 3-(N-methyl-N-(2-methoxy-phenyl)-carbamate)]",20 to 100,150000 to 350000
"CC1=C[C@]23C(=O)[C@@H](C=C(CO)[C@@H](O)[C@]2(O)[C@H]1OC(=O)N1CC(=O)Nc2ccccc21)[C@H]1[C@@H](C[C@H]3C)C1(C)C [Compound 733, Ingenol 3-(3-oxo-2,4-dihydroquinoxaline-1-carboxylate)]",> 100,150000 to 350000
"CC1=C[C@]23C(=O)[C@@H](C=C(CO)[C@@H](O)[C@]2(O)[C@H]1OC(=O)N1CCCC1C(F)(F)F)[C@H]1[C@@H](C[C@H]3C)C1(C)C (stereo partly drawn) [Compound 735, Ingenol 3-(2-trifluoromethyl-pyrrolidine-1-carboxylate)]",< 20,150000 to 350000
"CC1=C[C@]23C(=O)[C@@H](C=C(CO)[C@@H](O)[C@]2(O)[C@H]1OC(=O)N(C)C1CCN(C(=O)OC(C)(C)C)CC1)[C@H]1[C@@H](C[C@H]3C)C1(C)C [Compound 742, Ingenol 3-(N-methyl-N—(N-(tert-butyloxycarbonyl)-4-piperidyl)-carbamate)]",20 to 100,150000 to 350000
"CC1=C[C@]23C(=O)[C@@H](C=C(CO)[C@@H](O)[C@]2(O)[C@H]1OC(=O)N(C)C1CCC1)[C@H]1[C@@H](C[C@H]3C)C1(C)C [Compound 749, Ingenol 3-(N-cyclobutyl-N-methyl-carbamate)]",< 20,> 350000
"C=CCN(C)C(=O)O[C@H]1C(C)=C[C@]23C(=O)[C@@H](C=C(CO)[C@@H](O)[C@]12O)[C@H]1[C@@H](C[C@H]3C)C1(C)C [Compound 750, Ingenol 3-(N-allyl-N-methyl-carbamate)]",< 20,> 350000
"C#CCN(C)C(=O)O[C@H]1C(C)=C[C@]23C(=O)[C@@H](C=C(CO)[C@@H](O)[C@]12O)[C@H]1[C@@H](C[C@H]3C)C1(C)C [Compound 751, Ingenol 3-(N-methyl-N-prop-2-ynyl-carbamate)]",20 to 100,> 350000
